From patent US5434165A, “Nootropic agents, compositions of, and method of use thereof” (Sanawa Kagaku Kenkyusho Company, Ltd., priority 1991, dated 1995)
Where two headings read alike, the source gives them in different places. Blank lines part the entries; values can stand above or below the compound they belong to.

What was measured:
[1] = biological target: T1, 3H-Pirenzepine bonding to rat brain homogenate (Rattus norvegicus, UniProt P08482); assay: 3H-Pirenzepine bonding inhibition test, rat brain homogenate (Test Example 2); format: binding, SD male rat
T1 construct: to obtain a rat brain homogenate for testing; from tissue; host or cells: brain without cerebellum, SD male rat (homogenate, 1000×g supernatant)
T1 sequence (P08482 1-460): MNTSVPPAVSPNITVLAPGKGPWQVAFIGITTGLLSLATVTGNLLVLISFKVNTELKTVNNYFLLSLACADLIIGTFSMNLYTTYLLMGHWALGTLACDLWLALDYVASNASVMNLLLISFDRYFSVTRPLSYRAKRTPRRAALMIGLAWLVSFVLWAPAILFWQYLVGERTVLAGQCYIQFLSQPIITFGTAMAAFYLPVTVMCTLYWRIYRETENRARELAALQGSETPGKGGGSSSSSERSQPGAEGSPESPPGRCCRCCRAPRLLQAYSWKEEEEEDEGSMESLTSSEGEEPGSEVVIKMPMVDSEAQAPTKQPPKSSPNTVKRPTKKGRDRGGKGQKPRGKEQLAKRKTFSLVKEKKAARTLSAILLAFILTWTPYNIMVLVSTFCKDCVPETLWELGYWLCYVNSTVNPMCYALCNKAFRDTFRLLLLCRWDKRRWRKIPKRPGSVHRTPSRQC
Method: A rat brain homogenate was prepared according to the method of Yamamura and Synder (Proc. Nat. Acad. Sci. USA, Vol. 71, pp. 1725-1729 (1974)).
An SD male rat was sacrificed by decapitation, and the brain excised. After the cerebellum was removed, 0.32 M sucrose was added thereto in an amount 10 times the weight of the brain under ice cooling, followed by homogenizing in a Potter-Elvehjem glass homogenizer. The resulting homogenate was centrifuged at 1000×g for 10 minutes, the precipitate removed, and the supernatant further homogenized with a Polytron (manufactured by KINEMATICA) to obtain a rat brain homogenate for testing.
The method of Flynn and Mash (J. Pharm. Exp. Therm., Vol. 250, pp. 573-581 (1989)) was followed.
A mixture consisting of 0.035 ml of the above prepared rat brain homogenate (protein content: 0.6 mg), 1 ml of a 50 mM phosphoric acid buffer (pH 7.4) containing 2.0 nM ^3 H-pirenzepine, and 1 ml of a test compound dissolved in the same buffer was allowed to react at room temperature for 60 minutes. To the reaction mixture was added 3.0 ml of the same buffer as used above as cooled with ice, and the mixture was filtered through Whatman GF/B filter paper having been previously impregnated with a 0.1% polyethyleneimine solution for 60 minutes. The filter cake was washed twice with 3.0 ml of the same buffer, the filter paper taken out, an emulsion scintillator added, and the scintillation measured with a liquid scintillation counter to obtain a 50% inhibitory concentration (IC50) of the test compound on ^3 H-pirenzepine bonding to the rat brain homogenate.

[2] = tested on: scopolamine-induced inhibition of memory retention; assay: Passive avoidance learning test, scopolamine-induced memory retention defect (Test Example 1); format: in vivo, mice; conditions: 5 min after scopolamine 0.25 mg/kg i.p., remembrance test after 24 h
Method: A passive avoidance learning test using mice was conducted to examine whether scopolamine-induced inhibition of memory retention can be improved by the compound of the present invention.
A training box composed of a light room and a dark room having the same structure was used. The dark room is designed so that a foot shock is given to a test animal via a grid of the floor. An opening is provided on the partitioning wall of the two rooms to let animals in and out freely.
Scopolamine hydrobromide dissolved in physiological saline was intraperitoneally administered to a mouse at a dose of 0.25 mg/kg.
Five minutes after the scopolamine administration, a test compound was intraperitoneally administered to the mouse at a dose shown in Table 1 below (test group).
The animal was put in the light room. Immediately after the animal moved into the dark room, a foot shock was given until the animal returned to the light room.
After 24 hours from the training, the animal was again put in the light room, and the time required for the animal's moving to the dark room was measured up to 300 seconds.
The data from the remembrance test were analyzed to obtain a percent prolongation of the memory retention time of the test group based on that of the control group having received no test compound.

male mouse = assay: Acute Toxicity Test (Test Example 3); format: in vivo; conditions: 100 mg/kg i.p., 5-week-old male mouse
Method: The compound of Example 11, suspended in 5% gum arabic, was intraperitoneally achninistered to a 5-week-old […] male mouse. General manifestation of toxicity was observed over 60 minutes after the administration, and the animal's death was observed up to 24 hours from the administration.

[3] = 2.0 nM 3H-pirenzepine, pH 7.4, room temperature, 60 min, read-out: IC50 (50% inhibitory concentration on 3H-pirenzepine bonding)

SMILES: O=[N+]([O-])c1c2ccccc2c(NCC23CCCN2CCC3)c2ccccc12 [Example 19, 9-(1-Azabicyclo[3.3.0]octan-5-yl)methylamino-10-nitroanthracene]
- IC50 [1, 3]: 1.4 µM

- IC50 [1, 3]: 0.44 µM
SMILES: CN(CC12CCCN1CCC2)c1c([N+](=O)[O-])ccc2ccccc12 [Example 18, 1-[N-(1-Azabicyclo[3.3.0]octan-5-yl)methyl-N-methylamino]-2-nitronaphthalen]
- Percent Prolongation (of memory retention time vs control) ([2]; dose 0.01 μg/kg i.p.): 117.9%
- Percent Prolongation (of memory retention time vs control) ([2]; dose 0.1 μg/kg i.p.): 115.9%

SMILES: O=[N+]([O-])c1c(NCC23CCCN2CCC3)cnc2ccccc12 [Example 6, 3-(1-Azabicyclo[3.3.0]octan-5-yl)methylamino-4-nitroquinoline]
- IC50 [1, 3]: 1.2 µM
- Percent Prolongation (of memory retention time vs control) ([2]; dose 1000 μg/kg i.p.): 55.1%

SMILES: O=[N+]([O-])c1ccc(NCC23CCCN2CCC3)c2ccccc12 [Example 11, 1-(1-Azabicyclo[3.3.0]octan-5-yl)methylamino-4-nitronaphthalene]
- IC50 [1]: 0.9 µM
- general manifestation of toxicity (male mouse; observed over 60 minutes): neither general manifestation of toxicity nor death was observed
- death (male mouse; observed up to 24 hours): neither general manifestation of toxicity nor death was observed
- Percent Prolongation (of memory retention time vs control) ([2]; dose 1 μg/kg i.p.): 30.9%
- Percent Prolongation (of memory retention time vs control) ([2]; dose 10 μg/kg i.p.): 91.7%
- Percent Prolongation (of memory retention time vs control) ([2]; dose 100 μg/kg i.p.): 120.9%
- Percent Prolongation (of memory retention time vs control) ([2]; dose 1000 μg/kg i.p.): 152.6%

SMILES: O=[N+]([O-])c1ccc(NCC23CCCN2CCC3)cc1 [Example 10, 1-(1-Azabicyclo[3.3.0]octan-5-yl)methylamino-4-nitrobenzene]
- Percent Prolongation (of memory retention time vs control) ([2]; dose 1000 μg/kg i.p.): 26.5%

SMILES: CC(C)N(CCNc1ccc([N+](=O)[O-])c2ccccc12)C(C)C [Example 14, 1-(2-Diisopropylaminoethyl)amino-4-nitronaphthalene]
- IC50 [1, 3]: 0.9 µM

SMILES: Nc1c2c(nc3ccccc13)CCCC2 [THA, 1,2,3,4-tetrahydro-9-aminoacridine, reference compound]
- Percent Prolongation (of memory retention time vs control) ([2]; dose 100 μg/kg i.p.): 24.4%
- Percent Prolongation (of memory retention time vs control) ([2]; dose 1000 μg/kg i.p.): 74.8%

SMILES: O=[N+]([O-])c1cccc2c(NCC34CCCN3CCC4)cccc12 [Example 17, 1-(1-Azabicyclo[3.3.0]octan-5-yl)methylamino-5-nitronaphthalene]
- IC50 [1]: 0.8 µM

SMILES: CN(CC12CCCN1CCC2)c1ccc([N+](=O)[O-])c2ccccc12 [Example 15, 1[N-(1-Azabicyclo[3.3.0]octan-5-yl)methyl-N-methylamino]-4-nitronaphthalene]
- IC50 [1]: 0.04 µM
- Percent Prolongation (of memory retention time vs control) ([2]; dose 0.01 μg/kg i.p.): 111.6%
- Percent Prolongation (of memory retention time vs control) ([2]; dose 0.1 μg/kg i.p.): 68.8%
- Percent Prolongation (of memory retention time vs control) ([2]; dose 1 μg/kg i.p.): 85.2%
